Activity calls are given as the source filed them. The calls are words filed in the database; no cut-off is given here.

The source of these data is ChEMBL document CHEMBL6078657, “Thiazolidinedione-based structure modification of ergosterol peroxide provides thiazolidinedione-conjugated derivatives as potent agents against breast cancer cells through a PI3K/AKT/mTOR pathway” (Bioorg Med Chem, 2025).

The target of series [1] is Serine/threonine-protein kinase mTOR (Homo sapiens) (UniProt P42345). The experiment in a line: Inhibition of phosphorylation of mTOR in human MCF7 cells measured after 48 hrs by Western blot analysis. It counts as cell-based. The settings on record: dose 1-6 µM. In general terms: In western blotting, separated proteins are transferred to a membrane and probed.
Series [2] has as its system MCF7. The experiment in a line: Induction of cell cycle arrest in human MCF7 cells assessed as accumulation of cells at G0/G1 phase at 3 uM measured after 48 hrs by PI staining based flow cytometry analysis (reference value: 58.42%). It counts as functional. In general terms: Flow cytometry measures light scatter and fluorescence of single cells or particles in a stream.

For series [3], the system named is MCF7. The experiment in a line: Induction of cell cycle arrest in human MCF7 cells assessed as accumulation of cells at G0/G1 phase at 1 uM measured after 48 hrs by PI staining based flow cytometry analysis (reference value: 58.42%). It counts as functional.
The subject of another series is 4T1. Kind of series: In vivo antitumor activity against mouse 4T1 cells transfected in BALB/c mouse assessed as tumor growth inhibition at 15 mg/kg, ip daily for 14 consecutive days relative to control. The class given is functional. The conditions noted are these: 4T1, 336 h, time 14 day, read-out: TGI.
Series [4] in a line: Toxicity in healthy BALB/c mouse assessed as pathological changes in lungs at 40 mg/kg, ip daily for 14 consecutive days by HE staining based assay. The class given is organism-based. The settings on record: in vivo, 336 h, time 14 day.
In series [5] the test system is MCF7. Kind of series: Induction of apoptosis in human MCF7 cells assessed as decrease in mitochondrial membrane potential by measuring increase in JC-1 monomer (green fluorescence) at 6 uM incubated for 48 hrs by JC-1 staining based flow cytometry analysis (reference value: 2.96%). It counts as functional. More on the design: scale not given: the % may be the effect or the level left.

For another series, the system named is HepG2. Kind of series: Antiproliferative activity against human HepG2 cells assessed as cell viability measured after 48 hrs incubation by MTT assay. It counts as functional, cell-based. The conditions noted are these: HepG2, 48 h.
Series [6] deals with MCF7. The experiment in a line: Inhibition of phosphorylation of PI3K in human MCF7 cells measured after 48 hrs by Western blot analysis. The class given is cell-based. The conditions noted are these: dose 1-6 µM.
Series [7] deals with MCF7. Kind of series: Induction of apoptosis in human MCF7 cells assessed as viable cells at 3 uM measured after 48 hrs incubation by Annexin V-FITC/PI double staining assay (reference value: 92.8%). It counts as functional. The conditions noted are these: read-out: Activity.
Series [8] is described as follows: Toxicity in healthy BALB/c mouse assessed as pathological changes in liver at 40 mg/kg, ip daily for 14 consecutive days by HE staining based assay. The conditions noted are these: in vivo, 336 h, time 14 day. The class given is organism-based.
The subject of series [9] is MCF7. Kind of series: Induction of apoptosis in human MCF7 cells assessed as viable cells at 6 uM measured after 48 hrs incubation by Annexin V-FITC/PI double staining assay (reference value: 92.8%). The class given is functional. The settings on record: read-out: Activity.
The subject of series [10] is MCF7. Kind of series: Induction of apoptosis in human MCF7 cells assessed as increase in ROS production by measuring bright green fluorescence measured after 48 hrs incubation by DCFH-DA staining based flow cytometry assay. It counts as functional, cell-based. The settings on record: dose 1-6 µM.

In general, IC50 refers to the point on the concentration scale where inhibition reaches its midpoint. `CC(C)[C@@H](C)/C=C/[C@@H](C)[C@H]1CC[C@@H]2[C@]1(C)CC[C@H]1[C@]23C=C[C@]2(C[C@@H](OC(=O)NCCNC(=O)CN4C(=O)S/C(=C\c5cccc6ccccc56)C4=O)CC[C@]12C)OO3`: the inhibition result (in series [1]; in the series on MCF7 [6]) was “Dose-dependent-effect” throughout. Further, the Activity was 80.77% in the series with MCF7 [2]; 66.09% in the series on MCF7 [3]; “Non-toxic” in series [4]; 49.5% in the series with MCF7 [5]; “Non-toxic” in series [8]. Also, the inhibition in vivo at 15 mg/kg in the series on 4T1 was 33.5%. Moreover, the IC50 in the series on HepG2 was 5.55 µM. In addition, in the series with MCF7 [7], the viability at 3 µM was 75.7%. Moreover, the viability at 6 µM in the series with MCF7 [9] was determined as 53%. Besides, in the series with MCF7 [10], the outcome was Active.
